Data as given in patent US8710198B2, “Caprazene as a novel compound and derivatives thereof, and caprazol as a novel compound and derivatives thereof” (Meiji Seika Pharma Co., Ltd., priority 2003, dated 2014).

How the values were obtained:
Assay type in all cases: cell-based
[1] = tested on: Mycobacterium smegmatis ATCC607; experiment: Minimum growth inhibitory concentration on agar culture medium with 1% glycerine by serial dilution method; settings: agar culture medium with the addition of 1% glycerine
Protocol: (§1) Minimum growth inhibitory concentrations (mcg/ml) of caprazene-1′″-amide derivatives of the formula (II) against some of microorganisms were measured on an agar culture medium by a serial dilution method according to the standard method as provided by Japanese Society of Chemotherapy. For the cultivation of Mycobacterium smegmatis (one of […]), however, there was used an agar culture medium with the addition of 1% glycerine (the same applies to in the following tests).
(§2) Minimum growth inhibitory concentrations (mcg/ml) of some of the caprazene-1′″-ester derivative of the formula (III) against some of microorganisms were measured on an agar culture medium by a serial dilution method according to the standard method as provided by Japanese Society of Chemotherapy.
(§3) Minimum growth inhibitory concentrations (mcg/ml) of some of the caprazol-1′″-amide derivative of the formula (V) against a variety of microorganisms were measured on an agar medium by a serial dilution method according to the standard method as provided by Japanese Society of Chemotherapy.
as §3, with “caprazol-1′″-amide-3′″-ester” for “caprazol-1′″-amide”, “(VI)” for “(V)”
as §3, with “caprazol-3′″-ester derivative or caprazol-1′″-ester-3′″-ester” for “caprazol-1′″-amide”, “(VII)” for “(V)”

[2] = tested on: Staphylococcus aureus FDA209P; experiment: Minimum growth inhibitory concentration on agar culture medium by serial dilution method (Japanese Society of Chemotherapy)
Protocol: as §1, §2, §3
as §3, with “caprazol-1′″-amide-3′″-ester” for “caprazol-1′″-amide”, “(VI)” for “(V)”
as §3, with “caprazol-3′″-ester derivative or caprazol-1′″-ester-3′″-ester” for “caprazol-1′″-amide”, “(VII)” for “(V)”
(§4) Minimum growth inhibitory concentrations (mcg/ml) of some of the derivative of the formula (VIII) against a variety of microorganisms were measured on an agar medium by a serial dilution method according to the standard method as provided by Japanese Society of Chemotherapy.

Micrococcus luteus FDA16 = experiment: as above
Protocol: as §1, §2, §3
as §4, with “of the caprazol-1′″-amide-3′″-ester derivative of” for “of the derivative of”, “the formula (VI) against a” for “the formula (VIII) against a”
as §4, with “of the caprazol-3′″-ester derivative or caprazol-1′″-ester-3′″-ester derivative of” for “of the derivative of”, “the formula (VII) against a” for “the formula (VIII) against a”
as §4

SMILES	Minimum growth inhibitory concentration (mcg/ml) against bacteria Mycobacterium smegmatis ATCC607 [1]	Minimum growth inhibitory concentration (mcg/ml) against bacteria Staphylococcus aureus FDA209P [2]	Minimum growth inhibitory concentration (mcg/ml) against bacteria Micrococcus luteus FDA16 (Micrococcus luteus FDA16)
CCCCCCc1ccc(NC(=O)C2=CCN(C)C(C(OC3OC(CN)C(O)C3O)C3OC(n4ccc(=O)[nH]c4=O)C(O)C3O)C(=O)N2C)cc1 (stereo not drawn) [Compound II-6]	0.78 µg/mL	1.56 µg/mL	0.39 µg/mL
CCCCCCCCCOc1ccc(NC(=O)C2=CCN(C)C(C(OC3OC(CN)C(O)C3O)C3OC(n4ccc(=O)[nH]c4=O)C(O)C3O)C(=O)N2C)cc1 (stereo not drawn) [Compound II-23]	0.78 µg/mL	1.56 µg/mL	0.39 µg/mL
CCCCCc1ccc(NC(=O)C2=CCN(C)C(C(OC3OC(CN)C(O)C3O)C3OC(n4ccc(=O)[nH]c4=O)C(O)C3O)C(=O)N2C)cc1 (stereo not drawn) [Compound II-5]	3.13 µg/mL	3.13 µg/mL	0.2 µg/mL
CCCCCCCCCC=CCOC(=O)C1=CCN(C)C(C(OC2OC(CN)C(O)C2O)C2OC(n3ccc(=O)[nH]c3=O)C(O)C2O)C(=O)N1C (stereo not drawn) [Compound III-EE]	12.5 µg/mL	6.25 µg/mL	1.56 µg/mL
CCCCCCOc1ccc(NC(=O)C2=CCN(C)C(C(OC3OC(CN)C(O)C3O)C3OC(n4ccc(=O)[nH]c4=O)C(O)C3O)C(=O)N2C)cc1 (stereo not drawn) [Compound II-20]	1.56 µg/mL	6.25 µg/mL	0.39 µg/mL
CCCCCCCCCCCCCCCCCCCCNC(=O)C1=CCN(C)C(C(OC2OC(CN)C(O)C2O)C2OC(n3ccc(=O)[nH]c3=O)C(O)C2O)C(=O)N1C (stereo not drawn) [Compound II-O]	25 µg/mL	3.13 µg/mL	3.13 µg/mL
CCCCCCCCCC(=O)OC1CN(C)C(C(OC2OC(CN)C(O)C2O)C2OC(n3ccc(=O)[nH]c3=O)C(O)C2O)C(=O)N(C)C1C(=O)O (stereo not drawn) [Compound VII-D]	0.78 µg/mL	3.13 µg/mL	3.13 µg/mL
CCCCCCCCCCCCCNC(=O)C1=CCN(C)C(C(OC2OC(CN)C(O)C2O)C2OC(n3ccc(=O)[nH]c3=O)C(O)C2O)C(=O)N1C (stereo not drawn) [Compound II-H]	<0.20 µg/mL	3.13 µg/mL	0.78 µg/mL
CCCCCCCCCCCC(=O)OC1CN(C)C(C(OC2OC(CN)C(O)C2O)C2OC(n3ccc(=O)[nH]c3=O)C(O)C2O)C(=O)N(C)C1C(=O)OC (stereo not drawn) [Compound VII-G, caprazol-1′″-methyl-ester-3′″-dodecanoyl-ester Derivative]	50 µg/mL	>100 µg/mL	>100 µg/mL
CCCCCCCCCCCCCCCNC(=O)C1=CCN(C)C(C(OC2OC(CN)C(O)C2O)C2OC(n3ccc(=O)[nH]c3=O)C(O)C2O)C(=O)N1C (stereo not drawn) [Compound II-J]	1.56 µg/mL	1.56 µg/mL	0.78 µg/mL
CCCCCCCCCCCCCCCCCNC(=O)C1=CCN(C)C(C(OC2OC(CN)C(O)C2O)C2OC(n3ccc(=O)[nH]c3=O)C(O)C2O)C(=O)N1C (stereo not drawn) [Compound II-L]	3.13 µg/mL	1.56 µg/mL	1.56 µg/mL
CCCCCCCCCCNC(=O)C1=CCN(C)C(C(OC2OC(CN)C(O)C2O)C2OC(n3ccc(=O)[nH]c3=O)C(O)C2O)C(=O)N1C (stereo not drawn) [Compound II-E]	0.78 µg/mL	25 µg/mL	0.39 µg/mL
CCCCCCNC(=O)C1=CCN(C)C(C(OC2OC(CN)C(O)C2O)C2OC(n3ccc(=O)[nH]c3=O)C(O)C2O)C(=O)N1C (stereo not drawn) [Compound II-A]	100 µg/mL	>100 µg/mL	3.13 µg/mL
CCCCCCCCCCCC(=O)OC1CN(C)C(C(OC2OC(CN)C(O)C2O)C2OC(n3ccc(=O)[nH]c3=O)C(O)C2O)C(=O)N(C)C1C(=O)O (stereo not drawn) [Compound VII-F, caprazol-3′″-dodecanoyl Ester Derivative]	0.78 µg/mL	0.78 µg/mL	3.13 µg/mL
CCCCCCCCCCc1ccc(NC(=O)C2=CCN(C)C(C(OC3OC(CN)C(O)C3O)C3OC(n4ccc(=O)[nH]c4=O)C(O)C3O)C(=O)N2C)cc1 (stereo not drawn) [Compound II-10]	3.13 µg/mL	3.13 µg/mL	<0.20 µg/mL
CCCCCCCCCCCCCCNC(=O)C1=CCN(C)C(C(OC2OC(CNC(=O)OC(C)(C)C)C(O)C2O)C2OC(n3ccc(=O)[nH]c3=O)C(O)C2O)C(=O)N1C (stereo not drawn) [Compound II-I-N-Boc]	25 µg/mL	12.5 µg/mL	12.5 µg/mL
CCCCCCCCCCCCNC(=O)C1=CCN(C)C(C(OC2OC(CNC(=O)OC(C)(C)C)C(O)C2O)C2OC(n3ccc(=O)[nH]c3=O)C(O)C2O)C(=O)N1C (stereo not drawn) [Compound II-G-N-Boc]	50 µg/mL	50 µg/mL	50 µg/mL
CCCCCCCCC=CCCCCCCCCNC(=O)C1=CCN(C)C(C(OC2OC(CN)C(O)C2O)C2OC(n3ccc(=O)[nH]c3=O)C(O)C2O)C(=O)N1C (stereo not drawn) [Compound II-R]	1.56 µg/mL	1.56 µg/mL	1.56 µg/mL
CCCCCCCCCCCCCCCCCCOC(=O)C1=CCN(C)C(C(OC2OC(CN)C(O)C2O)C2OC(n3ccc(=O)[nH]c3=O)C(O)C2O)C(=O)N1C (stereo not drawn) [Compound III-CC]	>100 µg/mL	12.5 µg/mL	6.25 µg/mL
CCCCCCCCCCCc1ccc(NC(=O)C2=CCN(C)C(C(OC3OC(CN)C(O)C3O)C3OC(n4ccc(=O)[nH]c4=O)C(O)C3O)C(=O)N2C)cc1 (stereo not drawn) [Compound II-11]	3.13 µg/mL	3.13 µg/mL	0.39 µg/mL
CCCCCCCCCCCC(=O)OC1CN(C)C(C(OC2OC(CN)C(O)C2O)C2OC(n3ccc(=O)[nH]c3=O)C(O)C2O)C(=O)N(C)C1C(=O)NC1CCCCCCCCCCC1 (stereo not drawn) [Compound VI-Q]	6.25 µg/mL	12.5 µg/mL	3.13 µg/mL
CCCCCCCCCCCNC(=O)C1C(O)CN(C)C(C(OC2OC(CN)C(O)C2O)C2OC(n3ccc(=O)[nH]c3=O)C(O)C2O)C(=O)N1C (stereo not drawn) [Compound V-F]	6.25 µg/mL	12.5 µg/mL	25 µg/mL
CCCCCCCCCCCCCCc1ccc(NC(=O)C2=CCN(C)C(C(OC3OC(CN)C(O)C3O)C3OC(n4ccc(=O)[nH]c4=O)C(O)C3O)C(=O)N2C)cc1 (stereo not drawn) [Compound II-14]	25 µg/mL	6.25 µg/mL	3.13 µg/mL
